{"source": "patent US20030022826A1", "about": "“Use of synthetic peptides to induce tolerance to pathogenic T and B cell epitopes of autoantigens or infectious agents” (priority 1987, published 2003)", "key": {"[1]": {"tested_on": "circulating chimpanzee T, B or NK cell populations", "experiment": "Absolute numbers of lymphocytes and lymphocyte subsets by flow cytometry during immunization", "type": "in vivo", "settings": "for B cells, % Change / T cells, % Change / Total Lymphocytes, % Change / NK cells, % Change: before vs during immunization; for average drop of T cell levels: during the immunization period; for B cells, During / NK cells, During / T cells, During / Total Lymphocytes, During: mean, months 2-14 of immunization, n = 11", "source_text": "Flow Cytometry: Chimpanzee PB mononuclear cells were studied by standard flow cytometry methods using a flow cytometer (751; Coulter Electronics, Inc., Hialeah, Fla.). PB lymphocytes were identified by the following markers; total T cells, CD3; T cell subunits, CD4 and CD8; B cells, CD19; and NK cells, CD56 and CD16."}, "[2]": {"experiment": "DSP cross-linking and SDS-PAGE analysis of peptide complexes", "type": "physicochemical", "settings": "DSP cross-linking in the presence of Triton-X 100 1%", "method": "Lanes D,E,F, and G show the effect on peptide MW when the peptide is cross-linked with 6.25 μg (D), 12.5 μg (E), 25 μg (F) and 50 μg (G) of DSP prior to SDS-PAGE. […] At present, the nature of the two bands in this peptide under reducing conditions is unknown; these two bands can be purified by cutting the bands out of preparative gels and can be analyzed by mass spectroscopy and sequenced. Lanes A and B show the results of crosslinking F-T1-SP10IIIB(A) peptide in the presence to Triton-X 100 1% and run under reducing (A) and non-reducing conditions (B)."}, "PHA": {"tested_on": "PHA", "experiment": "PBMC proliferative responses to PHA in immunized chimpanzees", "type": "in vivo, chimpanzee", "settings": "animals 1045 and 1070; throughout the immunization period", "source_text": "Acpm=experimental cpm—control cpm."}}}
{"smiles": "CC[C@H](C)[C@H](NC(=O)[C@@H](NC(=O)[C@@H](NC(=O)[C@H](Cc1ccccc1)NC(=O)[C@H](C)NC(=O)[C@H](CCCNC(=N)N)NC(=O)CNC(=O)[C@@H]1CCCN1C(=O)CNC(=O)[C@H](CCCNC(=N)N)NC(=O)[C@H](CCC(N)=O)NC(=O)[C@@H](NC(=O)[C@H](CCCNC(=N)N)NC(=O)[C@@H](NC(=O)[C@H](CO)NC(=O)[C@H](CCCCN)NC(=O)[C@H](CCCNC(=N)N)NC(=O)[C@@H](NC(=O)[C@H](CC(N)=O)NC(=O)[C@H](CC(N)=O)NC(=O)[C@H](CC(N)=O)NC(=O)[C@@H]1CCCN1C(=O)[C@H](CCCNC(=N)N)NC(=O)[C@@H](NC(=O)[C@H](CS)NC(=O)[C@H](C)NC(=O)[C@H](Cc1ccc(O)cc1)NC(=O)[C@H](CCSC)NC(=O)[C@H](C)NC(=O)[C@H](CCCCN)NC(=O)CNC(=O)[C@@H](NC(=O)[C@H](CCC(=O)O)NC(=O)[C@H](CCC(N)=O)NC(=O)[C@H](Cc1c[nH]c2ccccc12)NC(=O)[C@H](CCSC)NC(=O)[C@H](CC(N)=O)NC(=O)[C@@H](NC(=O)[C@@H](NC(=O)[C@H](CCC(N)=O)NC(=O)[C@H](CCCCN)NC(=O)[C@H](CC(C)C)NC(=O)[C@H](Cc1ccccc1)NC(=O)CNC(=O)[C@H](CC(C)C)NC(=O)[C@H](Cc1ccccc1)NC(=O)[C@H](CC(C)C)NC(=O)[C@H](C)NC(=O)CNC(=O)[C@@H](NC(=O)CNC(=O)[C@@H](NC(=O)[C@H](C)N)C(C)C)[C@@H](C)CC)[C@@H](C)CC)[C@@H](C)CC)C(C)C)[C@@H](C)O)[C@@H](C)O)[C@@H](C)CC)[C@@H](C)CC)C(C)C)[C@@H](C)O)C(=O)O", "note": "[F-T1-SP10IIIB(A)]", "values": [{"measurement": "lymphocyte count", "setting": "[1]; animal 1045, week 12", "result": "650 /mm^3"}, {"measurement": "B cells, % Change", "setting": "[1]; chimpanzee 1045, § p > .005", "result": "−40", "unit": "%§"}, {"measurement": "T cells, % Change", "setting": "[1]; chimpanzee 1045, † p > .001", "result": "−59", "unit": "%†"}, {"measurement": "Total Lymphocytes, % Change", "setting": "[1]; chimpanzee 1045, † p > .001", "result": "−55", "unit": "%†"}, {"measurement": "NK cells, % Change", "setting": "[1]; chimpanzee 1045, ‡ p > .02", "result": "−45", "unit": "%‡"}, {"measurement": "average drop of T cell levels", "setting": "[1]; chimpanzee 1045, p>0.001 as printed", "result": 59, "unit": "%"}, {"measurement": "B cells, During", "setting": "[1]; chimpanzee 1045", "result": 175, "unit": "Cells/mm^3"}, {"measurement": "NK cells, During", "setting": "[1]; chimpanzee 1045", "result": 61, "unit": "Cells/mm^3"}, {"measurement": "T cells, During", "setting": "[1]; chimpanzee 1045", "result": 1012, "unit": "Cells/mm^3"}, {"measurement": "Total Lymphocytes, During", "setting": "[1]; chimpanzee 1045", "result": 1426, "unit": "Cells/mm^3"}, {"measurement": "B cells, % Change", "setting": "[1]; chimpanzee 1070", "result": "−23", "unit": "%"}, {"measurement": "NK cells, % Change", "setting": "[1]; chimpanzee 1070", "result": "−36", "unit": "%"}, {"measurement": "Total Lymphocytes, % Change", "setting": "[1]; chimpanzee 1070", "result": "−30", "unit": "%"}, {"measurement": "T cells, % Change", "setting": "[1]; chimpanzee 1070, ‡ p > .02", "result": "−44", "unit": "%‡"}, {"measurement": "average drop of T cell levels", "setting": "[1]; chimpanzee 1070, p>0.02 as printed", "result": 44, "unit": "%"}, {"measurement": "B cells, During", "setting": "[1]; chimpanzee 1070", "result": 232, "unit": "Cells/mm^3"}, {"measurement": "NK cells, During", "setting": "[1]; chimpanzee 1070", "result": 306, "unit": "Cells/mm^3"}, {"measurement": "T cells, During", "setting": "[1]; chimpanzee 1070", "result": 1887, "unit": "Cells/mm^3"}, {"measurement": "Total Lymphocytes, During", "setting": "[1]; chimpanzee 1070", "result": 2768, "unit": "Cells/mm^3"}, {"measurement": "effect on circulating lymphocyte levels", "setting": "[1]; chimpanzees, F-derivatized peptide in 1045 and 1070, Th-B in 884 and 1028", "result": "induced decreases in absolute levels of circulating T cells"}, {"measurement": "stability of high MW complexes to detergent", "setting": "[2]", "result": "resistant to disruption by this detergent"}, {"measurement": "PBMC PHA responses", "setting": "PHA", "result": "normal"}]}
